# Assay results as given in patent publication US20080161269A1, “Compounds 620” (ASTRAZENECA AB, priority 2006, published 2008).
# Counter-ions that a name gives are not always drawn.
# Molecular target: human β-Secretase (Homo sapiens, UniProt P56817)
# Assay: TR-FRET assay
# Assay type: biochemical
# Conditions: enzyme (truncated form) 0.3 nM; substrate (Europium)CEVNLDAEFK(Qsy7) 100 nM; pH4.5; 15 minutes at room temperature
# Method: The enzyme used in the IGEN Cleavage-, Fluorescent-, TR-FRET- and the BiaCore assay is described as follows:
# The gene was fused to the Fc domain of IgG1 (affinity tag) and stably cloned into HEK 293 cells. Purified sBACE-Fc is stored in Tris buffer, pH 9.2 and has a purity of 95%.
# Dilute the enzyme (truncated form) to 6 μg/mL (stock 1.3 mg/mL) and the substrate (Europium)CEVNLDAEFK(Qsy7) to 200 nM (stock 60 μM) in reaction buffer (NaAcetate, chaps, triton x-100, EDTA pH4.5). The Biomek FX is used for all liquid handling and the enzyme and substrate solutions are kept on ice until they are placed in Biomek FX. Enzyme (9 μl) is added to the plate then 1 μl of compound in dimethylsulphoxide is added, mixed and pre-incubated for 10 minutes. Substrate (10 μl) is then added, mixed and the reaction proceeds in the dark for 15 minutes at room temperature. The reaction is stopped with the addition of Stop solution (7 μl, NaAcetate pH 9). The fluorescence of the product is measured on a Wallac Victor II plate reader with an excitation wavelength of 340 nm and an emission wavelength of 615 nm. The assay is done in a Costar 384 well round bottom, low volume, non-binding surface (Corning #3676). The final concentration of the enzyme is 0.3 nM; the final concentration of substrate is 100 nM (Km of ˜250 nM). The dimethylsulphoxide control defines the 100% activity level and 0% activity is defined by exclusion of the enzyme, only using reaction buffer instead.
# Sequence of human β-Secretase (P56817 22-460): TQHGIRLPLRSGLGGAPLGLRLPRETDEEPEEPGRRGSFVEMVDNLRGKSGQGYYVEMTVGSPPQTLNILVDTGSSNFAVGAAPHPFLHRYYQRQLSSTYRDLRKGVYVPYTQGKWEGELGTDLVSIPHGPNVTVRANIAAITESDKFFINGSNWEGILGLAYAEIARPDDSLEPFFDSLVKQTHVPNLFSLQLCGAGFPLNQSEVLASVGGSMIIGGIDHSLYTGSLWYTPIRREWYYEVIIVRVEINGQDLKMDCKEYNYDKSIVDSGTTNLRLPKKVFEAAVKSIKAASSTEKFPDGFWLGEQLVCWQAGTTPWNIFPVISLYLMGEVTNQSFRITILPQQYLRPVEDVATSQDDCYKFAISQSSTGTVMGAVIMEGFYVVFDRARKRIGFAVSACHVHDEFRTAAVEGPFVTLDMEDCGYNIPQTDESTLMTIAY
row,SMILES,IC50
1,"CN1C(=O)C(c2ccc([Si](C)(C)C)cc2)(c2cccc(-c3cncnc3)c2)N=C1N (racemic) [Example 14, 2-Amino-3-methyl-5-(3-pyrimidin-5-ylphenyl)-5-[4-(trimethylsilyl)phenyl]-3,5-dihydro-4H-imidazol-4-one]",107 nM
2,"CN1C(=O)C(c2ccc([Si](C)(C)C)cc2)(c2cccc(-c3cncnc3)c2)N=C1N (single isomer, unassigned) [Example 15 (isomer 1), 2-amino-3-methyl-5-(3-pyrimidin-5-ylphenyl)-5-[4-(trimethylsilyl)phenyl]-3,5-dihydro-4H-imidazol-4-one]",41 nM
3,"CN1C(=O)C(c2cccc(-c3cccnc3F)c2)(c2cccc([Si](C)(C)C)c2)N=C1N (stereo not shown) [Example 30, 2-amino-4-(3-(2-fluoropyridin-3-yl)phenyl)-1-methyl-4-(3-(trimethylsilyl)phenyl)-1H-imidazol-5(4H)-one]",182 nM
4,"CN1C(=O)C(c2ccc([Si](C)(C)C)cc2)(c2cccc(-c3cccnc3)c2)N=C1N (stereo not shown) [Example 17, 2-amino-3-methyl-5-(3-pyridin-3-ylphenyl)-5-(4-trimethylsilylphenyl)imidazol-4-one acetic acid salt]",118 nM
5,"Cc1ncc(-c2cccc(C3(c4ccc([Si](C)(C)C)cc4)N=C(N)N(C)C3=O)c2)cn1 (stereo not shown) [Example 23, 2-amino-3-methyl-5-[3-(2-methylpyrimidin-5-yl)phenyl]-5-(4-trimethylsilylphenyl)imidazol-4-one acetic acid salt]",2260 nM
6,"CN1C(=O)C(c2ccc([Si](C)(C)C)cc2)(c2cccc(-c3cnc(F)nc3)c2)N=C1N (stereo not shown) [Example 25, 2-amino-5-[3-(2-fluoropyrimidin-5-yl)phenyl]-3-methyl-5-(4-trimethylsilylphenyl)imidazol-4-one]",460 nM
7,"CN1C(=O)C(c2ccc([Si](C)(C)C)cc2)(c2cccc(-c3cnn(C)c3)c2)N=C1N (stereo not shown) [Example 22, 2-amino-3-methyl-5-[3-(1-methylpyrazol-4-yl)phenyl]-5-(4-trimethylsilylphenyl)imidazol-4-one Acetic Acid Salt]",2740 nM
8,"CN1C(=O)C(c2ccc([Si](C)(C)C)cc2)(c2cccc(-c3cccnc3F)c2)N=C1N (stereo not shown) [Example 13, 2-Amino-5-[3-(2-fluoropyridin-3-yl)phenyl]-3-methyl-5-[4-(trimethylsilyl)phenyl]-3,5-dihydro-4H-imidazol-4-one]",81 nM
9,"COc1cncc(-c2cccc(C3(c4ccc([Si](C)(C)C)cc4)N=C(N)N(C)C3=O)c2)c1 (stereo not shown) [Example 16, 2-amino-5-[3-(5-methoxypyridin-3-yl)phenyl]-3-methyl-5-(4-trimethylsilylphenyl)imidazol-4-one acetic acid salt]",23 nM
10,"COc1cccc(-c2cccc(C3(c4ccc([Si](C)(C)C)cc4)N=C(N)N(C)C3=O)c2)c1 (stereo not shown) [Example 12, 2-Amino-5-(3′-methoxybiphenyl-3-yl)-3-methyl-5-[4-(trimethylsilyl)phenyl]-3,5-dihydro-4H-imidazol-4-one]",84 nM
11,"CN1C(=O)C(c2ccc([Si](C)(C)C)cc2)(c2cccc(-c3cncnc3)c2)N=C1N (single isomer, unassigned) [Example 15 (isomer 2), 2-amino-3-methyl-5-(3-pyrimidin-5-ylphenyl)-5-[4-(trimethylsilyl)phenyl]-3,5-dihydro-4H-imidazol-4-one]",> 10000 nM
12,"CN1C(=O)C(c2cccc(-c3cnccn3)c2)(c2cccc([Si](C)(C)C)c2)N=C1N (stereo not shown) [Example 32, 2-amino-1-methyl-4-(3-(pyrazin-2-yl)phenyl)-4-(3-(trimethylsilyl)phenyl)-1H-imidazol-5(4H)-one]",86 nM
13,"CN1C(=O)C(c2cccc(-c3ccc(F)nc3)c2)(c2cccc([Si](C)(C)C)c2)N=C1N (stereo not shown) [Example 28, 2-amino-4-(3-(6-fluoropyridin-3-yl)phenyl)-1-methyl-4-(3-(trimethylsilyl)phenyl)-1H-imidazol-5(4H)-one]",278 nM
14,"CN1C(=O)C(c2ccc([Si](C)(C)C)cc2)(c2cccc(-c3cncc(F)c3)c2)N=C1N (stereo not shown) [Example 18, 2-amino-5-[3-(5-fluoropyridin-3-yl)phenyl]-3-methyl-5-(4-trimethylsilylphenyl)imidazol-4-one acetic acid salt]",180 nM
15,"COc1cccc(-c2cccc(C3(c4cccc([Si](C)(C)C)c4)N=C(N)N(C)C3=O)c2)n1 (stereo not shown) [Example 31, 2-amino-4-(3-(6-methoxypyridin-2-yl)phenyl)-1-methyl-4-(3-(trimethylsilyl)phenyl)-1H-imidazol-5(4H)-one]",1530 nM
16,"CN1C(=O)C(c2cccc(-c3cncc(Cl)c3)c2)(c2cccc([Si](C)(C)C)c2)N=C1N (stereo not shown) [Example 27, 2-amino-4-(3-(5-chloropyridin-3-yl)phenyl)-1-methyl-4-(3-(trimethylsilyl)phenyl)-1H-imidazol-5(4H)-one]",163 nM
17,"CN1C(=O)C(c2ccc([Si](C)(C)C)cc2)(c2cccc(-c3cnccn3)c2)N=C1N (stereo not shown) [Example 24, 2-amino-3-methyl-5-(3-pyrazin-2-ylphenyl)-5-(4-trimethylsilylphenyl)imidazol-4-one]",80 nM
18,"CN1C(=O)C(c2cccc(-c3cncnc3)c2)(c2cccc([Si](C)(C)C)c2)N=C1N (stereo not shown) [Example 26, 2-amino-1-methyl-4-(3-(pyrimidin-5-yl)phenyl)-4-(3-(trimethylsilyl)phenyl)-1H-imidazol-5(4H)-one]",135 nM
19,"CN1C(=O)C(c2ccc([Si](C)(C)C)cc2)(c2cccc(-c3cnccc3C#N)c2)N=C1N (stereo not shown) [Example 21, 3-[3-[2-amino-1-methyl-5-oxo-4-(4-trimethylsilylphenyl)imidazol-4-yl]phenyl]pyridine-4-carbonitrile Acetic Acid Salt]",460 nM
20,"CN1C(=O)C(c2cccc(-c3cccnc3)c2)(c2cccc([Si](C)(C)C)c2)N=C1N (stereo not shown) [Example 29, 2-amino-1-methyl-4-(3-(pyridin-3-yl)phenyl)-4-(3-(trimethylsilyl)phenyl)-1H-imidazol-5(4H)-one]",202 nM
21,"CN1C(=O)C(c2ccc([Si](C)(C)C)cc2)(c2cccc(-c3ccc(F)nc3)c2)N=C1N (stereo not shown) [Example 20, 2-amino-5-[3-(6-fluoropyridin-3-yl)phenyl]-3-methyl-5-(4-trimethylsilylphenyl)imidazol-4-one Acetic Acid Salt]",437 nM
22,"CN1C(=O)C(c2ccc([Si](C)(C)C)cc2)(c2cccc(-c3cncc(C#N)c3)c2)N=C1N (stereo not shown) [Example 19, 5-[3-[2-amino-1-methyl-5-oxo-4-(4-trimethylsilylphenyl)imidazol-4-yl]phenyl]pyridine-3-carbonitrile acetic acid salt]",118 nM
